In patent publication US12043622B2, “Crystal form of compound for inhibiting the activity of CDK4/6 and use thereof” (Betta Pharmaceuticals Co., Ltd., priority 2019, dated 2024):
Where two headings read alike, the source gives them in different places. One block for each molecule: values may come before it.

Legend:
[1] = Solid form conversion of amorphous and metastable forms; assay type: physicochemical; settings: for Solid form stability under moisture: water/moisture, room temperature
CDK2/cyclin E = CDK2/cyclin E (Homo sapiens, UniProt P24941); experiment: CDK subtype selectivity, 33P-ATP radiometric kinase assay; assay type: biochemical
Text: (§1) The mechanism of this method is shown in formula (IV).
(§2) Data was processed with Prism4 Software (GraphPad), and the curve fitting formula was: Y=Bottom+(Top−Bottom)/(1+10^((Log IC50−X)*HillSlope)); wherein, Y is percent inhibition (%); X is logarithm of concentration of the inhibitor.

CDK9/cyclin T1 = CDK9/cyclin T1 (Homo sapiens, UniProt P50750); experiment: as above; assay type: biochemical
Text: as §1, §2

[2] = Solubility in water at room temperature; assay type: physicochemical; settings: for Classification of solubility: classes of the Chinese Pharmacopoeia (2015); for solubility: thermodynamic from solid
[3] = Crystal form long-term stability, impurities by HPLC; assay type: physicochemical; settings: for Content > 0.1% Number of unknown impurities (s) / Maximum single impurity content (%) / Total impurity content (%): 25° C.±2° C., RH 60%±10%, HPLC
[4] = Pharmacokinetic experiment in SD rats, plasma by LC-MS/MS; assay type: in vivo; settings: both sexes, Sprague-Dawley (SD), rat, PO, 30 mg/kg
Method: A total of 12 SD rats were divided into two groups, 6 in each group, each half of male and female.
In the above plasma sample, protein was precipitated by acetonitrile, the supernatant was diluted 3 times with water, and 5 μL was detected by LC-MS/MS, the results of experiment was shown in table 10: […]

[5] = Stability of the crystal form, checked by XRD; assay type: physicochemical
Method: In one embodiment of the invention, XRD analysis of the small sample (batch number: 1072P04-A14S01) was performed by SoliPharmausing Bruker D8 Advance Diffractometer.

[6] = Dynamic moisture sorption (DVS); assay type: physicochemical
Text: The instruments and methods of Dynamic moisture adsorption in the present invention was shown in table 7, the results of DVS was shown in table 8.

CDK9/cyclin T1, sequence (P50750 whole entry, species assumed): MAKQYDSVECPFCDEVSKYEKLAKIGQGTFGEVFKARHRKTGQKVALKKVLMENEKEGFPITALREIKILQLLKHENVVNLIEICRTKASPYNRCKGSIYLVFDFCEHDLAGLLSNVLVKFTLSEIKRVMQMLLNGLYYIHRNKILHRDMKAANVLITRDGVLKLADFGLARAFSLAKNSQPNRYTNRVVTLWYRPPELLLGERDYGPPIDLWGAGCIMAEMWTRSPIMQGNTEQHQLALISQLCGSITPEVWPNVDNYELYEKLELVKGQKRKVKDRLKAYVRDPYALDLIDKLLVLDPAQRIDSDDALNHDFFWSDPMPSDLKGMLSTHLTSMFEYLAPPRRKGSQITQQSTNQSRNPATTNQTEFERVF
CDK9/cyclin T1, sequence (O60563 whole entry partner, species assumed): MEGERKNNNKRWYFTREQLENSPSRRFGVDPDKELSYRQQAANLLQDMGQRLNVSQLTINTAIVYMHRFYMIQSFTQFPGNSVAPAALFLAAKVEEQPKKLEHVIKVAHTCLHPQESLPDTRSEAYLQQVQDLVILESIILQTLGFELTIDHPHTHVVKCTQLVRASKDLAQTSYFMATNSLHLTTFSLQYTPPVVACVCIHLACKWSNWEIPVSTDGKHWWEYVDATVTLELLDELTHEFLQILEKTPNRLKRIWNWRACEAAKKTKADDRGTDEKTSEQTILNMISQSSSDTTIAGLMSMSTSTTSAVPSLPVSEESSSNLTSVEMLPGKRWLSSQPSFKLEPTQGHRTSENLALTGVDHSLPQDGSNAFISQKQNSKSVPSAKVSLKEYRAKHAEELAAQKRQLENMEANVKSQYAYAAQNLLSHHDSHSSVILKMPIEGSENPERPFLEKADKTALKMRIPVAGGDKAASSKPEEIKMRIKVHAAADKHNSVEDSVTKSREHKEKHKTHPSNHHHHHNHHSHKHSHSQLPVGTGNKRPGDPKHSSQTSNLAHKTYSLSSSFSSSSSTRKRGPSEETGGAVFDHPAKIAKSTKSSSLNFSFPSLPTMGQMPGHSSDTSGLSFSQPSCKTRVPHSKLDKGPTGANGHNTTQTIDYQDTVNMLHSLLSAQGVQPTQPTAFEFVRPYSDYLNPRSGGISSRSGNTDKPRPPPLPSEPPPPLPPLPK

Structure (SMILES): CCN1CCN(Cc2ccc(Nc3ncc(F)c(-c4cc(F)c5nc6n(c5c4)[C@H](C)CCC6)n3)nc2)CC1.CS(=O)(=O)O [amorphous form of compound III]
Solid form stability on scale-up ([1]; scaled up to 50 mg): unstable

Structure (SMILES): CCN1CCN(Cc2ccc(Nc3ncc(F)c(-c4cc(F)c5nc6n(c5c4)[C@H](C)CCC6)n3)nc2)CC1 [compound 2b]
IC50 (CDK2/cyclin E; read-out: IC50 CDK2/cyclin E): 441 nM | IC50 (CDK9/cyclin T1; read-out: IC50 CDK9/cyclin T1): 649 nM

Structure (SMILES): CCN1CCN(Cc2ccc(Nc3ncc(F)c(-c4cc(F)c5nc6n(c5c4)[C@H](C)CCC6)n3)nc2)CC1.CS(=O)(=O)O [crystal form D of compound III]
Classification of solubility [2]: soluble | solubility [2]: 50 to 100 mg/mL | XRD pattern after storage (crystal form stability) ([5]; 25° C., 60% RH, 10 days): changed | XRD pattern after storage (crystal form stability) ([5]; 40° C., 75% RH, 10 days): changed | XRD pattern after storage (crystal form stability) ([5]; dried at 80° C., 24 h, listed as crystal form D of the compound III): unchanged

Structure (SMILES): CCN1CCN(Cc2ccc(Nc3ncc(F)c(-c4cc(F)c5nc6n(c5c4)[C@H](C)CCC6)n3)nc2)CC1.CS(=O)(=O)O [crystal form F of compound III]
XRD pattern after storage (crystal form stability) ([5]; 25° C., 60% RH, 10 days): changed | XRD pattern after storage (crystal form stability) ([5]; 40° C., 75% RH, 10 days): changed | XRD pattern after storage (crystal form stability) ([5]; dried at 80° C., 24 h, listed as crystal form F the compound III): changed | Weight change in the range of 0% RH-80% RH [6]: 16.6%

The next lines start with results.

Solid form stability under moisture ([1]; listed as amorphous form of Compound II): readily forms Form B of Compound II
Structure (SMILES): CCN1CCN(Cc2ccc(Nc3ncc(F)c(-c4cc(F)c5nc6n(c5c4)[C@H](C)CCC6)n3)nc2)CC1.O=C(O)C(O)C(O)C(=O)O [amorphous form of compound II]
Solid form stability under moisture [1]: readily converted to the crystal form B of compound II

Classification of solubility [2]: Very little soluble | solubility [2]: < 1 mg/mL | IC50 (CDK2/cyclin E; stated jointly for CDK1/2/7/9, read-out: IC50 for inhibiting CDK2): > 400 nM | IC50 (CDK9/cyclin T1; stated jointly for CDK1/2/7/9, read-out: IC50 for inhibiting CDK9): > 400 nM | Content > 0.1% Number of unknown impurities (s) ([3]; 0 month): 0 | Maximum single impurity content (%) ([3]; 0 month): 0.04% | Total impurity content (%) ([3]; 0 month): 0.11% | Content > 0.1% Number of unknown impurities (s) ([3]; 3 month): 0 | Maximum single impurity content (%) ([3]; 3 month): 0.10% | Total impurity content (%) ([3]; 3 month): 0.17% | Maximum single impurity content (%) ([3]; 18 month): 0.22% | Total impurity content (%) ([3]; 18 month): 1.0% | AUC(0-t) [4]: 27700 ng·h/mL
Structure (SMILES): CCN1CCN(Cc2ccc(Nc3ncc(F)c(-c4cc(F)c5nc6n(c5c4)[C@H](C)CCC6)n3)nc2)CC1 [compound I, (R)—N-(5-((4-ethylpiperazin-1-yl)methyl)pyridin-2-yl)-5-fluoro-4-(6-fluoro-1-methyl-1,2,3,4-tetrahydrobenzo[4,5]imidazo[1,2-a]pyridin-8-yl)pyrimidin-2-amine]

Classification of solubility [2]: Readily-soluble | solubility [2]: 100 to 200 mg/mL | XRD pattern after storage (crystal form stability) ([5]; 25° C., 60% RH, 10 days): not changed | XRD pattern after storage (crystal form stability) ([5]; 25° C., 60% RH, 10 days, listed as crystal form A of the compound II): unchanged | XRD pattern after storage (crystal form stability) ([5]; 40° C., 75% RH, 10 days): not changed | XRD pattern after storage (crystal form stability) ([5]; 40° C., 75% RH, 10 days, listed as crystal form A of the compound II): unchanged | XRD pattern after storage (crystal form stability) ([5]; dried at 80° C., 24 h): not changed | XRD pattern after storage (crystal form stability) ([5]; dried at 80° C., 24 h, listed as crystal form A of the compound II): unchanged | Content > 0.1% Number of unknown impurities (s) ([3]; 0 month): 0 | Maximum single impurity content (%) ([3]; 0 month): 0.05% | Total impurity content (%) ([3]; 0 month): 0.10% | Content > 0.1% Number of unknown impurities (s) ([3]; 3 month): 0 | Maximum single impurity content (%) ([3]; 3 month): 0.05% | Total impurity content (%) ([3]; 3 month): 0.13% | Content > 0.1% Number of unknown impurities (s) ([3]; 18 month): 0 | Maximum single impurity content (%) ([3]; 18 month): 0.06% | Total impurity content (%) ([3]; 18 month): 0.21% | Amount of the impurities produced ([3]; after 18 months): less than 0.1% | AUC(0-t) [4]: 47000 ng·h/mL
Structure (SMILES): CCN1CCN(Cc2ccc(Nc3ncc(F)c(-c4cc(F)c5nc6n(c5c4)[C@H](C)CCC6)n3)nc2)CC1.O=C(O)C(O)C(O)C(=O)O [crystal form A of compound II]

Weight change in the range of 0% RH-80% RH [6]: 5.5% | Solid form stability on heating ([1]; heated to 180° C.): could be converted to crystal form A
Structure (SMILES): CCN1CCN(Cc2ccc(Nc3ncc(F)c(-c4cc(F)c5nc6n(c5c4)[C@H](C)CCC6)n3)nc2)CC1.O=C(O)C(O)C(O)C(=O)O [crystal form B of compound II]
